From patent EP0409227A2, “Pyrimidine nucleosides, their preparation and pharmaceutical preparations” (MATTHES, Eckart, Dr., priority 1989, dated 1991) come the findings set out here.

In one data set the test system is MT4 Zellen. Put plainly: Cytotoxicity: inhibition of proliferation of MT4 cells. In kind it is cell-based. Conditions: MT4 cells; 50 % inhibition of cell multiplication after 48 h. As to the method: Unter dem Aspekt einer möglichen Anwendung der Verbindungen am Menschen wurden ihre antiproliferativen Wirkungen an menschlichen Zellkulturen wie früher beschrieben getestet (E. Matthes et al. Biochem.Biophys.Res.Commun. 153, 825 (1988)). Dabei zeigte sich, daß z.B. 2′,3′-Didesoxy-3-fluor-5-methylcytidin gegenüber der T-Zellinie MT4 eine CD₅₀ von 190 µM aufweist. In einem weiteren Test, in dem eine mögliche Wachstumshemmung koloniebildender Zellen des Knochenmarks der Maus (CFU-GM) untersucht wurde (E. Matthes et al. Biochem.Biophys.Res.Commun. 165, 488 (1989), erwies sich diese Verbindung ebenfalls als kaum proliferationshemmend (CD₅₀ > 500 µM). Die Wirkung weiterer Verbindungen auf die Proliferation von MT4-Zellen ist in Tabelle 3 zusammengefaßt. Tabelle 3
`Cc1cn([C@H]2C[C@H](Cl)[C@@H](CO)O2)c(=O)nc1N` [2′,3′-Didesoxy-3′chlor-5-methylcytidin, 3′-Chlor-2′,3′-didesoxy-5-methylcytidin] had a CD₅₀ of 625 µM.

The next data set concerns HBsAg-Sekretion von Hep G2 (2.2.15)-Zellen. As to the kind of experiment: Inhibition of HBsAg secretion of Hep G2 (2.2.15) cells (solid-phase radioimmunoassay of the medium). In kind it is cell-based, HBV. To be noted: nucleoside 0,01 µM; 4 days + 24 h; mean ± SD of five experiments. As for the experimental part: (§1) Die Testung der antiviralen Wirksamkeit der Nucleoside auf zelluärer Ebene erfolgte an einer menschlichen Hepatoblastom-Zellinie, die mit dem HBV-Genom tranfiziert wurde und sowohl das Oberflächenantigen des Virus (HBsAg) als auch die HBV-DNA permanent produziert und infektiöse Viruspartikel in das Medium abgibt (Hep G2-Zellen, Klon 2.2.15, Sells et al. Proc.Natl.Acad. Sci. 84, 1005 (1987)). Die Zellen (5x10⁵/ml) wurden in RPMI 1640-Medium mit 2 mM Glutamin und 10% fetalem Kälberserum allein oder zusammen mit den Nucleosid-Analoga für 4 Tage inkubiert, danach wurden den Ansätzen für 24 Stunden ³H-Thymidin bzw. ³H-Desoxyadenosin (3 µCi/ml) zugesetzt, die Zellen abzentrifugiert und darin die säureunlösliche Radioaktivität und damit der Einfluß auf die DNA-Synthese bestimmt. Im Inkubationsmedium wurde das HBsAg durch Festphasenradioimmunoassay (Travenol-Genentech Diagnostics, Cambridge, MA) entsprechend den Instruktionen des Herstellers ermittelt. Die Tabelle 4 faßt die Ergebnisse zusammen, die belegen, daß die getesteten Verbindungen hochwirksame und selektive Hemmstoffe der HBV-Vermehrung sind.
On to `Cc1cn([C@H]2C[C@H](Cl)[C@@H](CO)O2)c(=O)nc1N` [2′,3′-Didesoxy-3′chlor-5-methylcytidin, 3′-Chlor-2′,3′-didesoxy-5-methylcytidin], for which the HBsAg is reported as 9,6 ± 1,2 ng/ml.

The same data set, now with this note: nucleoside 0,1 µM; 4 days + 24 h; mean ± SD of five experiments.
Consider `Cc1cn([C@H]2C[C@H](Cl)[C@@H](CO)O2)c(=O)nc1N` [2′,3′-Didesoxy-3′chlor-5-methylcytidin, 3′-Chlor-2′,3′-didesoxy-5-methylcytidin], for which the HBsAg is listed as 3,4 ± 0,4 ng/ml.

Still in this data set, the particulars now being: nucleoside 0,01 µM; % of control without nucleoside (100).
In turn, `Cc1cn([C@H]2C[C@H](Cl)[C@@H](CO)O2)c(=O)nc1N` [2′,3′-Didesoxy-3′chlor-5-methylcytidin, 3′-Chlor-2′,3′-didesoxy-5-methylcytidin] yielded an HBsAg of 50%.

The same data set, now with this note: nucleoside 0,1 µM; % of control without nucleoside (100).
Consider `Cc1cn([C@H]2C[C@H](Cl)[C@@H](CO)O2)c(=O)nc1N` [2′,3′-Didesoxy-3′chlor-5-methylcytidin, 3′-Chlor-2′,3′-didesoxy-5-methylcytidin], for which the HBsAg was determined as 18%.

The data set is the same for the next values; noted with them: nucleoside 0,03 µM; 4 days + 24 h; mean ± SD of five experiments.
On to `Cc1cn([C@H]2C[C@H](Cl)[C@@H](CO)O2)c(=O)nc1N` [2′,3′-Didesoxy-3′chlor-5-methylcytidin, 3′-Chlor-2′,3′-didesoxy-5-methylcytidin], for which the HBsAg is 7,1 ± 0,8 ng/ml.

Still in this data set, the particulars now being: nucleoside 0,3 µM; 4 days + 24 h; mean ± SD of five experiments.
Take `Cc1cn([C@H]2C[C@H](Cl)[C@@H](CO)O2)c(=O)nc1N` [2′,3′-Didesoxy-3′chlor-5-methylcytidin, 3′-Chlor-2′,3′-didesoxy-5-methylcytidin]: the HBsAg was 3,2 ± 0,5 ng/ml.

The data set is the same for the next values; noted with them: nucleoside 0,03 µM; % of control without nucleoside (100).
`Cc1cn([C@H]2C[C@H](Cl)[C@@H](CO)O2)c(=O)nc1N` [2′,3′-Didesoxy-3′chlor-5-methylcytidin, 3′-Chlor-2′,3′-didesoxy-5-methylcytidin] displayed an HBsAg of 37%.

Still in this data set, the particulars now being: nucleoside 0,3 µM; % of control without nucleoside (100).
`Cc1cn([C@H]2C[C@H](Cl)[C@@H](CO)O2)c(=O)nc1N` [2′,3′-Didesoxy-3′chlor-5-methylcytidin, 3′-Chlor-2′,3′-didesoxy-5-methylcytidin] registered an HBsAg of 17%.

The data set is the same for the next values; noted with them: nucleoside 0,003 µM; 4 days + 24 h; mean ± SD of five experiments.
As for `Cc1cn([C@H]2C[C@H](Cl)[C@@H](CO)O2)c(=O)nc1N` [2′,3′-Didesoxy-3′chlor-5-methylcytidin, 3′-Chlor-2′,3′-didesoxy-5-methylcytidin], the HBsAg is on record as 18,5 ± 2,6 ng/ml.

The same data set, now with this note: nucleoside 0,003 µM; % of control without nucleoside (100).
On to `Cc1cn([C@H]2C[C@H](Cl)[C@@H](CO)O2)c(=O)nc1N` [2′,3′-Didesoxy-3′chlor-5-methylcytidin, 3′-Chlor-2′,3′-didesoxy-5-methylcytidin], for which the HBsAg is reported as 96%.

The same data set, now with this note: nucleoside 1,0 µM; 4 days + 24 h; mean ± SD of five experiments.
In the case of `Cc1cn([C@H]2C[C@H](Cl)[C@@H](CO)O2)c(=O)nc1N` [2′,3′-Didesoxy-3′chlor-5-methylcytidin, 3′-Chlor-2′,3′-didesoxy-5-methylcytidin], the HBsAg is given as 0,4 ± 0,1 ng/ml.

Still in this data set, the particulars now being: nucleoside 1,0 µM; % of control without nucleoside (100).
Compound `Cc1cn([C@H]2C[C@H](Cl)[C@@H](CO)O2)c(=O)nc1N` [2′,3′-Didesoxy-3′chlor-5-methylcytidin, 3′-Chlor-2′,3′-didesoxy-5-methylcytidin] had an HBsAg of 2%.

Staying with this data set, now noted: nucleoside 3,0 µM; 4 days + 24 h; mean ± SD of five experiments.
As for `Cc1cn([C@H]2C[C@H](Cl)[C@@H](CO)O2)c(=O)nc1N` [2′,3′-Didesoxy-3′chlor-5-methylcytidin, 3′-Chlor-2′,3′-didesoxy-5-methylcytidin], the HBsAg is recorded as < 0,1 ng/ml.

Staying with this data set, now noted: nucleoside 3,0 µM; % of control without nucleoside (100).
Take `Cc1cn([C@H]2C[C@H](Cl)[C@@H](CO)O2)c(=O)nc1N` [2′,3′-Didesoxy-3′chlor-5-methylcytidin, 3′-Chlor-2′,3′-didesoxy-5-methylcytidin]: the HBsAg is on record as under 1%.

In another data set the test system is Hep G2 (2.2.15)-Zellen. Put plainly: DNA synthesis of Hep G2 (2.2.15) cells (acid-insoluble radioactivity after 3H-thymidine or 3H-deoxyadenosine). Conditions: nucleoside 0,01 µM; 4 days, then 24 h label; mean ± SD of five experiments. The format is cell-based, menschlichen. As for the experimental part:
as §1
Take `Cc1cn([C@H]2C[C@H](Cl)[C@@H](CO)O2)c(=O)nc1N` [2′,3′-Didesoxy-3′chlor-5-methylcytidin, 3′-Chlor-2′,3′-didesoxy-5-methylcytidin]: the “^3H-DNA” value is recorded as 14820 ± 1550 dpm/Kultur.

Still in this data set, the particulars now being: nucleoside 0,1 µM; 4 days, then 24 h label; mean ± SD of five experiments.
As to `Cc1cn([C@H]2C[C@H](Cl)[C@@H](CO)O2)c(=O)nc1N` [2′,3′-Didesoxy-3′chlor-5-methylcytidin, 3′-Chlor-2′,3′-didesoxy-5-methylcytidin], the “^3H-DNA” value worked out at 15185 ± 1735 dpm/Kultur.

Staying with this data set, now noted: nucleoside 0,03 µM; 4 days, then 24 h label; mean ± SD of five experiments.
Take `Cc1cn([C@H]2C[C@H](Cl)[C@@H](CO)O2)c(=O)nc1N` [2′,3′-Didesoxy-3′chlor-5-methylcytidin, 3′-Chlor-2′,3′-didesoxy-5-methylcytidin]: the “^3H-DNA” value is given as 14370 ± 1620 dpm/Kultur.

The data set is the same for the next values; noted with them: nucleoside 0,3 µM; 4 days, then 24 h label; mean ± SD of five experiments.
Turning to `Cc1cn([C@H]2C[C@H](Cl)[C@@H](CO)O2)c(=O)nc1N` [2′,3′-Didesoxy-3′chlor-5-methylcytidin, 3′-Chlor-2′,3′-didesoxy-5-methylcytidin], the “^3H-DNA” value is 13895 ± 1540 dpm/Kultur.

Still in this data set, the particulars now being: nucleoside 0,003 µM; 4 days, then 24 h label; mean ± SD of five experiments.
In the case of `Cc1cn([C@H]2C[C@H](Cl)[C@@H](CO)O2)c(=O)nc1N` [2′,3′-Didesoxy-3′chlor-5-methylcytidin, 3′-Chlor-2′,3′-didesoxy-5-methylcytidin], the “^3H-DNA” value turned out to be 13450 ± 1465 dpm/Kultur.

Staying with this data set, now noted: nucleoside 1,0 µM; 4 days, then 24 h label; mean ± SD of five experiments.
As to `Cc1cn([C@H]2C[C@H](Cl)[C@@H](CO)O2)c(=O)nc1N` [2′,3′-Didesoxy-3′chlor-5-methylcytidin, 3′-Chlor-2′,3′-didesoxy-5-methylcytidin], the “^3H-DNA” value is 12270 ± 1590 dpm/Kultur.

Still in this data set, the particulars now being: nucleoside 3,0 µM; 4 days, then 24 h label; mean ± SD of five experiments.
Take `Cc1cn([C@H]2C[C@H](Cl)[C@@H](CO)O2)c(=O)nc1N` [2′,3′-Didesoxy-3′chlor-5-methylcytidin, 3′-Chlor-2′,3′-didesoxy-5-methylcytidin]: the “^3H-DNA” value is 10065 ± 1855 dpm/Kultur.
